PubChem BioAssay AID248 (DTP/NCI, 2004)
Where “and” joins values, the source holds several entries; their conditions need not be identical. Identical values can stand only once. Inconclusive results and toxic doses are left out. Rule as the data show it: active = T/C of 150% or more; inactive = T/C below 125%.

Test system: L1210 leukemia ip in BDF1 mice, survival T/C
Test: NCI In Vivo Anticancer Drug Screen. Data for tumor model L1210 Leukemia (intraperitoneal) in B6D2F1 (BDF1) mice
Conditions: endpoint: mean survival time, higher = longer survival
Procedure, shortened: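 Each compound was tested against a transplantable tumor grown in mice. The endpoint was survival, with treated animals benchmarked against vehicle controls as a simple ratio.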

[1] = dose: 50.0 mg/kg/injection, schedule: Q01DX009 (ip), vehicle: saline
[2] = dose: 100.0 mg/kg/injection, schedule: Q01DX009 (ip), vehicle: saline
[3] = dose: 100.0 mg/kg/injection, schedule: Q04DX002 (ip), vehicle: saline with Tween-80
[4] = dose: 200.0 mg/kg/injection, schedule: Q01DX009 (ip), vehicle: saline
[5] = dose: 200.0 mg/kg/injection, schedule: Q04DX002 (ip), vehicle: saline with Tween-80
[6] = dose: 400.0 mg/kg/injection, schedule: Q04DX002 (ip), vehicle: saline with Tween-80
[7] = dose: 100.0 mg/kg/injection, schedule: Q01DX009 (ip), vehicle: Klucel (hydroxypropylcellulose) (HPC)
[8] = dose: 200.0 mg/kg/injection, schedule: Q01DX009 (ip), vehicle: Klucel (hydroxypropylcellulose) (HPC)
[9] = dose: 400.0 mg/kg/injection, schedule: Q01DX009 (ip), vehicle: Klucel (hydroxypropylcellulose) (HPC)
[10] = dose: 100.0 mg/kg/injection, schedule: Q04DX003 (ip), vehicle: saline
[11] = dose: 100.0 mg/kg/injection, schedule: Q04DX002 (ip), vehicle: Klucel (hydroxypropylcellulose) (HPC)
[12] = dose: 200.0 mg/kg/injection, schedule: Q04DX002 (ip), vehicle: Klucel (hydroxypropylcellulose) (HPC)
[13] = dose: 400.0 mg/kg/injection, schedule: Q04DX002 (ip), vehicle: Klucel (hydroxypropylcellulose) (HPC)
[14] = dose: 100.0 mg/kg/injection, schedule: Q04DX003 (ip), vehicle: Klucel (hydroxypropylcellulose) (HPC)
[15] = dose: 200.0 mg/kg/injection, schedule: Q04DX003 (ip), vehicle: Klucel (hydroxypropylcellulose) (HPC)
[16] = dose: 400.0 mg/kg/injection, schedule: Q04DX003 (ip), vehicle: Klucel (hydroxypropylcellulose) (HPC)
[17] = dose: 100.0 mg/kg/injection, schedule: Q01DX001 (ip), vehicle: carboxymethylcellulose (CMC)
[18] = dose: 200.0 mg/kg/injection, schedule: Q01DX001 (ip), vehicle: carboxymethylcellulose (CMC)
[19] = dose: 25.0 mg/kg/injection, schedule: Q04DX003 (ip), vehicle: saline
[20] = dose: 50.0 mg/kg/injection, schedule: Q04DX003 (ip), vehicle: saline

Measured: T/C

O=C(NO)C(=O)NO
inactive: [1] 98 % of control | [2] 113 % of control | [3] 90 % of control | [4] 117 % of control | [5] 107 % of control | [6] 110 % of control

O=C(Nc1ccc2ccccc2c1)c1ccc(F)cc1
inactive: [7] 97 % of control | [8] 102 % of control | [9] 94 % of control

Cc1cccc(N)[n+]1CCC(=O)O
inactive: dose: 75.0 mg/kg/injection, schedule: Q04DX003 (ip), vehicle: saline 101 % of control | dose: 150.0 mg/kg/injection, schedule: Q04DX003 (ip), vehicle: saline 94 % of control | dose: 300.0 mg/kg/injection, schedule: Q04DX003 (ip), vehicle: saline 95 % of control

NC(CCl)=NCc1cccnc1
inactive: dose: 12.5 mg/kg/injection, schedule: Q04DX002 (ip), vehicle: saline 97 % of control | dose: 25.0 mg/kg/injection, schedule: Q04DX002 (ip), vehicle: saline 108 % of control

CSc1ccc(NC(=S)NC(=O)c2ccc(Cl)cc2Cl)cc1
inactive: dose: 100.0 mg/kg/injection, schedule: Q01DX009 (ip), vehicle: saline with Tween-80 93 % of control and 89 % of control | [3] 90 % of control and 92 % of control | dose: 200.0 mg/kg/injection, schedule: Q01DX009 (ip), vehicle: saline with Tween-80 96 % of control and 88 % of control | [5] 93 % of control and 100 % of control | dose: 400.0 mg/kg/injection, schedule: Q01DX009 (ip), vehicle: saline with Tween-80 96 % of control and 100 % of control | [6] 107 % of control and 90 % of control

C1OCC2CCC(CC2)CO1
inactive: [1] 95 % of control | [2] 98 % of control | [4] 97 % of control

O=C(O)c1ccc2cc(O)ccc2c1
inactive: [10] 92 % of control | dose: 200.0 mg/kg/injection, schedule: Q04DX003 (ip), vehicle: saline 98 % of control | dose: 400.0 mg/kg/injection, schedule: Q04DX003 (ip), vehicle: saline 97 % of control

CC1C(O)C(O)CC2COCC21 (stereo unspecified)
inactive: dose: 100.0 mg/kg/injection, schedule: Q01DX001 (ip), vehicle: saline sonified 91 % of control | dose: 200.0 mg/kg/injection, schedule: Q01DX001 (ip), vehicle: saline sonified 107 % of control | dose: 400.0 mg/kg/injection, schedule: Q01DX001 (ip), vehicle: saline sonified 113 % of control

O=C(Nc1ccc(I)cc1)c1ccc([N+](=O)[O-])cc1
inactive: [11] 99 % of control | [12] 101 % of control | [13] 115 % of control

COc1ccc(C2=CN(S(=O)(=O)c3ccc(C)cc3)CCc3ccccc32)cc1
inactive: [14] 96 % of control | [15] 102 % of control | [16] 92 % of control

CCCCCNC(=O)CCCC
inactive: [17] 103 % of control | dose: 100.0 mg/kg/injection, schedule: Q01DX009 (ip), vehicle: carboxymethylcellulose (CMC) 97 % of control and 108 % of control | dose: 100.0 mg/kg/injection, schedule: Q04DX002 (ip), vehicle: carboxymethylcellulose (CMC) 97 % of control | dose: 100.0 mg/kg/injection, schedule: Q04DX003 (ip), vehicle: carboxymethylcellulose (CMC) 101 % of control | [18] 104 % of control | dose: 200.0 mg/kg/injection, schedule: Q01DX009 (ip), vehicle: carboxymethylcellulose (CMC) 101 % of control and 103 % of control | dose: 200.0 mg/kg/injection, schedule: Q04DX002 (ip), vehicle: carboxymethylcellulose (CMC) 97 % of control | dose: 200.0 mg/kg/injection, schedule: Q04DX003 (ip), vehicle: carboxymethylcellulose (CMC) 97 % of control | dose: 400.0 mg/kg/injection, schedule: Q04DX002 (ip), vehicle: carboxymethylcellulose (CMC) 97 % of control | dose: 400.0 mg/kg/injection, schedule: Q04DX003 (ip), vehicle: carboxymethylcellulose (CMC) 94 % of control

Nc1cc2c(c(Cl)c1Br)-c1ccccc1C2=O
inactive: dose: 100.0 mg/kg/injection, schedule: Q01DX001 (ip), vehicle: saline 96 % of control | dose: 200.0 mg/kg/injection, schedule: Q01DX001 (ip), vehicle: saline 90 % of control | dose: 400.0 mg/kg/injection, schedule: Q01DX001 (ip), vehicle: saline 94 % of control

CCOP(=S)(OCC)SCc1c(C)c(C)c(CSP(=S)(OCC)OCC)c(C)c1C
inactive: [7] 95 % of control | [14] 103 % of control | [8] 103 % of control | [15] 101 % of control | [9] 93 % of control | [16] 105 % of control

O=C(Nc1cc(NC(=O)Nc2cccc(C3=NCCN3)c2)cc(C(=O)O)c1)Nc1cccc(C2=NCCN2)c1
inactive: dose: 15.0 mg/kg/injection, schedule: Q01DX Z (ip), vehicle: carboxymethylcellulose (CMC) 96 % of control | dose: 30.0 mg/kg/injection, schedule: Q01DX Z (ip), vehicle: carboxymethylcellulose (CMC) 96 % of control | dose: 60.0 mg/kg/injection, schedule: Q01DX Z (ip), vehicle: carboxymethylcellulose (CMC) 94 % of control | dose: 120.0 mg/kg/injection, schedule: Q01DX Z (ip), vehicle: carboxymethylcellulose (CMC) 100 % of control and 106 % of control | dose: 240.0 mg/kg/injection, schedule: Q01DX Z (ip), vehicle: carboxymethylcellulose (CMC) 104 % of control

CC(C)(C)NC(=O)NCc1ccccc1Cl
inactive: [11] 96 % of control | [12] 96 % of control | [13] 100 % of control

CN(C)CC/C=C1/c2ccccc2COc2ccccc21
inactive: dose: 6.12 mg/kg/injection, schedule: Q01DX001 (ip), vehicle: water 111 % of control | dose: 6.25 mg/kg/injection, schedule: Q01DX009 (ip), vehicle: saline 103 % of control | dose: 12.5 mg/kg/injection, schedule: Q01DX001 (ip), vehicle: water 113 % of control | dose: 12.5 mg/kg/injection, schedule: Q01DX009 (ip), vehicle: saline 107 % of control | dose: 25.0 mg/kg/injection, schedule: Q01DX001 (ip), vehicle: water 103 % of control | dose: 25.0 mg/kg/injection, schedule: Q01DX009 (ip), vehicle: saline 101 % of control | [19] 109 % of control | [1] 113 % of control | [20] 101 % of control | [10] 93 % of control

O=C(/C=C/c1cccc([N+](=O)[O-])c1)NCCBr
inactive: [7] 101 % of control | [14] 95 % of control | [8] 101 % of control | [15] 97 % of control | [16] 95 % of control

CC(C)c1ncc([N+](=O)[O-])n1C
inactive: dose: 25.0 mg/kg/injection, schedule: Q04DX003 (ip), vehicle: Klucel (hydroxypropylcellulose) (HPC) 97 % of control | dose: 50.0 mg/kg/injection, schedule: Q04DX003 (ip), vehicle: Klucel (hydroxypropylcellulose) (HPC) 95 % of control | [17] 103 % of control | [7] 102 % of control | [14] 97 % of control and 114 % of control | [18] 101 % of control | [15] 104 % of control | dose: 400.0 mg/kg/injection, schedule: Q01DX001 (ip), vehicle: carboxymethylcellulose (CMC) 101 % of control | [9] 91 % of control | [16] 106 % of control

CC(C)(CO)N=Cc1ccccc1O.CC(C)(CO)N=Cc1ccccc1O.[Co]
inactive: dose: 12.5 mg/kg/injection, schedule: Q01DX001 (ip), vehicle: saline 97 % of control | dose: 25.0 mg/kg/injection, schedule: Q01DX001 (ip), vehicle: saline 97 % of control | dose: 50.0 mg/kg/injection, schedule: Q01DX001 (ip), vehicle: saline 92 % of control

O=c1[nH]cnc2ncn(Cc3ccccc3)c12
inactive: dose: 12.5 mg/kg/injection, schedule: Q04DX002 (ip), vehicle: Klucel (hydroxypropylcellulose) (HPC) 115 % of control | dose: 25.0 mg/kg/injection, schedule: Q04DX002 (ip), vehicle: Klucel (hydroxypropylcellulose) (HPC) 88 % of control | dose: 50.0 mg/kg/injection, schedule: Q04DX002 (ip), vehicle: Klucel (hydroxypropylcellulose) (HPC) 102 % of control

CCN(CC)CCCC(C)N (stereo unspecified)
inactive: dose: 12.5 mg/kg/injection, schedule: Q04DX003 (ip), vehicle: saline 104 % of control | [19] 100 % of control | [20] 101 % of control
